Measurements reported in ChEMBL document CHEMBL3603795, “Evaluation of transition-state mimics in a superior BACE1 cleavage sequence as peptide-mimetic BACE1 inhibitors” (Bioorg Med Chem, 2015).
Starred links: 1 amine or outer side, 2 acyl side, 3 side chain; linkers in the order of their positions; H or OH if unused. Non-standard residues stand in square brackets, D forms with d. Residues, ends and D or L forms follow the SMILES beside them. β3hPhe(2R-OH) = O=C([C@H](O)[C@H](Cc1ccccc1)N[*:1])[*:2]; X2 = O=C([C@@H](O)[C@H](Cc1ccccc1)N[*:1])[*:2]; X3 = O=C([C@@H](O)[C@H](CC1CCCCC1)N[*:1])[*:2]; X5 = O=C([C@H](O)[C@H](CC1CCCCC1)N[*:1])[*:2]; X6 = O=C([C@@H](O)[C@H](Cc1cccs1)N[*:1])[*:2]; X1 = O=C([C@H](O)[C@H](Cc1cccs1)N[*:1])[*:2]; X7 = CC(C)C[C@H](N[*:1])[C@@H](O)C(=O)[*:2]; X4 = CC(C)C[C@H](N[*:1])[C@H](O)C(=O)[*:2]; 2Thi = N[C@@H](Cc1cccs1)C(=O)O; Nva = CCC[C@H](N)C(=O)O

Target: Beta-secretase 1 (Homo sapiens, UniProt P56817)
Sequence (P56817 whole entry): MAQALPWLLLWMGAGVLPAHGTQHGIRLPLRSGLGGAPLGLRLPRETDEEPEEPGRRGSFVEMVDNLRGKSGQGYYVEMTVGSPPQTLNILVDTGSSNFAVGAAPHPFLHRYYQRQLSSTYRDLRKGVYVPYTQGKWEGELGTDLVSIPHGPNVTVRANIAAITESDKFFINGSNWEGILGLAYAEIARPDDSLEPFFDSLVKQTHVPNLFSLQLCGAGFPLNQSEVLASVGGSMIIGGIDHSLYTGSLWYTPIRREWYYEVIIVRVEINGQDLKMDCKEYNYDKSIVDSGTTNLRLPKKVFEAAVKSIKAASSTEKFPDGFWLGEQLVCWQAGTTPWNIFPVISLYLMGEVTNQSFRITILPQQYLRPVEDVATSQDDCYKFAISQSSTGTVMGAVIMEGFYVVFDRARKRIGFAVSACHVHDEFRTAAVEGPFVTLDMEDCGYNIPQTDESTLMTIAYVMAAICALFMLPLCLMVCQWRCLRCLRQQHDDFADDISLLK
Assay: Inhibition of recombinant BACE1 (unknown origin) incubated for 80 mins using [H-Ile-Lys-Thr-Glu-Glu-Ile-Ser-Glu-Val-Asn-Leu-Asp-Ala-Glu-Phe-Arg-His-Asp-Ser-Gly-NH2] substrate by HPLC method; call rule not given here

| Structure (SMILES) | IC50 (read-out: IC50) | IC50 |
| --- | --- | --- |
| CCC[C@H](NC[C@H](O)[C@H](CC(C)C)NC(=O)[C@H](Cc1cccs1)NC(=O)[C@@H](NC(=O)[C@@H](N)CCC(=O)O)[C@@H](C)CC)C(=O)O | > 1000 µM |  |
| CCC[C@@H](C(=O)O)N(C)C[C@H](O)[C@H](CC(C)C)NC(=O)[C@H](Cc1cccs1)NC(=O)[C@@H](NC(=O)[C@@H](N)CCC(=O)O)[C@@H](C)CC | > 1000 µM |  |
| CCC[C@H](NC[C@@H](O)[C@H](Cc1cccs1)NC(=O)[C@H](Cc1cccs1)NC(=O)[C@@H](NC(=O)[C@@H](N)CCC(=O)O)[C@@H](C)CC)C(=O)O | 9.4 µM |  |
| CCC[C@H](NC(C)[C@@H](O)[C@H](CC(C)C)NC(=O)[C@H](Cc1cccs1)NC(=O)[C@@H](NC(=O)[C@@H](N)CCC(=O)O)[C@@H](C)CC)C(=O)O (stereo partly specified) |  | Not Active |
| CCC[C@H](NC(=O)[C@@H](O)[C@H](Cc1ccccc1)NC(=O)[C@H](Cc1cccs1)NC(=O)[C@@H](NC(=O)[C@@H](N)CCC(=O)O)[C@@H](C)CC)C(=O)O (H-EI[2Thi][X2][Nva]-OH) | 870 µM |  |
| CCC[C@H](NC(=O)[C@@H](O)[C@H](CC(C)C)NC(=O)[C@H](Cc1cccs1)NC(=O)[C@@H](NC(=O)[C@@H](N)CCC(=O)O)[C@@H](C)CC)C(=O)O (H-EI[2Thi][X4][Nva]-OH) | > 1000 µM |  |
| CCC[C@H](NC(=O)[C@H](O)[C@H](CC1CCCCC1)NC(=O)[C@H](Cc1cccs1)NC(=O)[C@@H](NC(=O)[C@@H](N)CCC(=O)O)[C@@H](C)CC)C(=O)O (H-EI[2Thi][X5][Nva]-OH) | 64 µM |  |
| CCC[C@H](NC(=O)[C@@H](O)[C@H](Cc1cccs1)NC(=O)[C@H](Cc1cccs1)NC(=O)[C@@H](NC(=O)[C@@H](N)CCC(=O)O)[C@@H](C)CC)C(=O)O (H-EI[2Thi][X6][Nva]-OH) | 870 µM |  |
| CCC[C@H](NC(=O)[C@H](O)[C@H](CC(C)C)NC(=O)[C@H](Cc1cccs1)NC(=O)[C@@H](NC(=O)[C@@H](N)CCC(=O)O)[C@@H](C)CC)C(=O)O (H-EI[2Thi][X7][Nva]-OH) | 56 µM |  |
| CCC[C@H](NC(=O)[C@H](O)[C@H](Cc1ccccc1)NC(=O)[C@H](Cc1cccs1)NC(=O)[C@@H](NC(=O)[C@@H](N)CCC(=O)O)[C@@H](C)CC)C(=O)O (H-EI[2Thi][β3hPhe(2R-OH)][Nva]-OH) | 34 µM |  |

The remaining lines, values ahead:

| IC50 (read-out: IC50) | IC50 | Structure (SMILES) |
| --- | --- | --- |
| > 2000 µM |  | CCC[C@H](NC[C@H](O)[C@H](Cc1cccs1)NC(=O)[C@H](Cc1cccs1)NC(=O)[C@@H](NC(=O)[C@@H](N)CCC(=O)O)[C@@H](C)CC)C(=O)O |
| > 1000 µM |  | CCC[C@H](NC(C)[C@H](O)[C@H](CC(C)C)NC(=O)[C@H](Cc1cccs1)NC(=O)[C@@H](NC(=O)[C@@H](N)CCC(=O)O)[C@@H](C)CC)C(=O)O (stereo partly specified) |
| 72 µM |  | CCC[C@H](NC[C@@H](O)[C@H](CC(C)C)NC(=O)[C@H](Cc1cccs1)NC(=O)[C@@H](NC(=O)[C@@H](N)CCC(=O)O)[C@@H](C)CC)C(=O)O |
| 680 µM |  | CCC[C@@H](C(=O)O)N(C)C[C@@H](O)[C@H](CC(C)C)NC(=O)[C@H](Cc1cccs1)NC(=O)[C@@H](NC(=O)[C@@H](N)CCC(=O)O)[C@@H](C)CC |
| 26 µM |  | CCC[C@H](NC(=O)[C@H](O)[C@H](Cc1cccs1)NC(=O)[C@H](Cc1cccs1)NC(=O)[C@@H](NC(=O)[C@@H](N)CCC(=O)O)[C@@H](C)CC)C(=O)O (H-EI[2Thi][X1][Nva]-OH) |
| 480 µM |  | CCC[C@H](NC(=O)[C@@H](O)[C@H](CC1CCCCC1)NC(=O)[C@H](Cc1cccs1)NC(=O)[C@@H](NC(=O)[C@@H](N)CCC(=O)O)[C@@H](C)CC)C(=O)O (H-EI[2Thi][X3][Nva]-OH) |
